Where a name gives a salt, the structure may show the parent alone. Read-outs that look alike come from different tables or passages of the source.
Key:
[1] = test system: recombinant HIV-1 clones (patient protease/RT sequences in HIV-1 NL4-3); assay: microbe, parasite or virus in culture; type: cell-based
[2] = test system: HIV-1 macrophage-tropic virus strains
[3] = test system: HIV-1 macrophage-tropic virus strains; assay: microbe, parasite or virus in culture; conditions: in Homo sapiens
[4] = test system: human PBMCs; conditions: 7 days
[5] = test system: HIV-1 clinical isolates; assay: microbe, parasite or virus in culture; conditions: Human immunodeficiency virus 1, PBMC
[6] = test system: drug-resistant HIV-1 isolates; assay: Anti-HIV efficacy in fresh human PBMCs, drug-resistant HIV-1 isolates; conditions: for IC50: Human immunodeficiency virus 1, PBMC, in Homo sapiens
[7] = test system: HIV-2 CDC 310319; assay: microbe, parasite or virus in culture; conditions: Human immunodeficiency virus 2, PBMC
[8] = test system: HIV-2 CDC 310319; conditions: HIV-2 CDC 310319 in PBMCs
[9] = test system: human PBMCs; assay: MTS staining for PBMC viability (cytotoxicity); conditions: read-out: TC50, PBMCs, MTS
[10] = MTS cytotoxicity in monocyte/macrophage cultures; type: cell-based; conditions: human, TC50
Description: (§1) Anti-HIV Efficacy Evaluation in Fresh Human Monocyte/Macrophage. Monocytes/macrophages were allowed to adhere to the interior 60 wells of a 96 well flat bottomed plate for 2 to 18 hours at 37° C., 5% CO2. Following 6 to 14 days in culture, the monocyte/macrophage cultures were washed 3 times to remove any non-adherent cells and serially diluted test compounds were added followed by the addition of a pre-titered amount of HIV. Cultures were washed a final time by media removal 24 hours post infection, fresh compound added and the cultures continued for an additional six days. […] At assay termination, virus replication was measured by collecting cell-free supernatant samples which were analyzed for HIV p24 antigen content using a commercially available p24 ELISA assay (Coulter). […] MTS staining for PBMC viability to measure cytotoxicity. […] The mitochondrial enzymes of metabolically active cells metabolize MTS to yield a soluble formazan product. This allows the rapid quantitative analysis of cell viability and compound cytotoxicity. […] At termination of the assay, 20 μL of MTS reagent was added per well. The microtiter plates were then incubated 4-6 hrs at 37° C. The incubation intervals were chosen based on empirically determined times for optimal dye reduction. […] Data analysis.

[11] = test system: human monocytes/macrophages; assay: MTS cytotoxicity in monocyte/macrophage cultures; type: cell-based; conditions: 7 days
Description: as §1

[12] = in vitro; conditions: human
[13] = test system: HIV-1 clinical isolates

With C[C@H](Cn1cnc2c(N)ncnc21)OCP(=O)(O)O [TFV, Tenofovir] as the molecule, how does the “Fold-increase (EC50 fold increase above reference clone NL4-3)” value (shortened to “Fold-increase”) ([1]; RT mutation 2-5 TAMs, K65 and/or Q151, N=4, averaged) read?
Its value is 8.5.

What about the “Fold-increase” value ([1]; RT mutation 2-5 TAMs, N=16, averaged) of the same molecule?
The value was 3.5.

What about the “Fold-increase” value ([1]; RT mutation 2-5 TAMs, T69ins, N=4, averaged) of the same molecule?
Its value is 12.2.

And the “Fold-increase” value ([1]; RT mutation 6 TAMS, M184, N=7, averaged)?
Its value is 1.6.

What about the “Fold-increase” value ([1]; RT mutation 6 TAMs, N=5, averaged) of the same molecule?
Its value is 5.0.

What about the “Fold-increase” value ([1]; RT mutation K65 and/or Q151, M184, N=12, averaged) of the same molecule?
The value was 2.2.

What about the “Fold-increase” value ([1]; RT mutation K65 and/or Q151, N=7, averaged) of the same molecule?
Its value is 4.0.

And the “Fold-increase” value ([1]; RT mutation M184, N=12, averaged)?
The value was 0.6.

What about the “Fold-increase” value ([1]; Wild-type clones, N=8, averaged) of the same molecule?
Its value is 0.8.

What does the source list for Cc1c(O)cccc1C(=O)N[C@@H](CSc1ccccc1)[C@H](O)CN1C[C@H]2CCCC[C@H]2C[C@H]1C(=O)NC(C)(C)C [Nelfinavir, nelfinavir mesylate]?
TI (TC50/IC50) ([2]; HIV-1 ADA in macrophages): >221.2; TI (TC50/IC50) ([2]; HIV-1 Ba-L in macrophages): >275.5; IC50 ([3]; Human immunodeficiency virus 1, BAL, Macrophage, HIV-1 Ba-L in macrophages): 36.3 nM; IC50 ([3]; Human immunodeficiency virus 1, Macrophage, HIV-1 ADA in macrophages): 45.2 nM; CC50 [4]: > 1000 nM; IC50 ([5]; HIV-1 96USHIPS7 (subtype /B, R5) in PBMCs): 25.8 nM; IC50 ([5]; HIV-1 BR/92/021 (subtype B/B, R5) in PBMCs): 70.5 nM; IC50 ([5]; HIV-1 BR/93/017 (subtype B/B, R5) in PBMCs): 2.05 nM; IC50 ([5]; HIV-1 BR/93/020 (subtype F/F, R5/X4) in PBMCs): 16.4 nM; IC50 ([5]; HIV-1 BR/93/022 (subtype /B, R5) in PBMCs): 20.1 nM; IC50 ([5]; HIV-1 CMU 02 (subtype /EA, X4) in PBMCs): 22.7 nM; IC50 ([5]; HIV-1 JV 1083 (subtype /G, R5) in PBMCs): 14 nM; IC50 ([5]; HIV-1 RW/92/016 (subtype A/A, R5) in PBMCs): 13.4 nM; IC50 ([5]; HIV-1 UG/92/046 (subtype D/D, X4) in PBMCs): 27.7 nM; TI (TC50/IC50) ([6]; HIV-1 52-52 in PBMCs): >10.5; TI (TC50/IC50) ([6]; HIV-1 144-44 in PBMCs): >6.05; TI (TC50/IC50) ([6]; HIV-1 1064-52 in PBMCs): >1.19; TI (TC50/IC50) ([6]; HIV-1 MDR 807 in PBMCs): >7.41; IC50 ([6]; HIV-1 52-52 (protease-inhibitor resistant) in PBMCs): 95 nM; IC50 ([6]; against several viruses (e.g., MDR 1385, MDR 3761) in PBMCs): > 1000 nM; IC50 ([6]; multi-drug-resistant HIV-1 MDR 769 in PBMCs): > 1000 nM; IC50 ([6]; multi-drug-resistant HIV-1 MDR 807 in PBMCs): 135 nM; IC50 ([6]; multi-drug-resistant HIV-1 MDR 1385 in PBMCs): > 1000 nM; IC50 ([6]; multi-drug-resistant HIV-1 MDR 3761 in PBMCs): > 1000 nM; IC50 [7]: 16.1 nM; TI (TC50/IC50) [8]: >62.1; CC50 ([9]; MDR 807 assay): > 1000 nM; CC50 ([9]; MDR 1385 assay): > 1000 nM; CC50 ([9]; MDR 3761 assay): > 1000 nM; CC50 at 7 days [10]: > 10000 nM; CC50 [11]: > 10000 nM; CC50 [12]: > 1000 nM; CC50 at 7 days [12]: > 1000 nM; TI (TC50/IC50) ([13]; HIV-1 96USHIPS7 in PBMCs): >38.8; TI (TC50/IC50) ([13]; HIV-1 BFC01 in PBMCs): >1010.1; TI (TC50/IC50) ([13]; HIV-1 BR/92/021 in PBMCs): >14.2; TI (TC50/IC50) ([13]; HIV-1 BR/92/025 in PBMCs): >9901.0; TI (TC50/IC50) ([13]; HIV-1 BR/93/017 in PBMCs): >487.8; TI (TC50/IC50) ([13]; HIV-1 BR/93/020 in PBMCs): >61.0; TI (TC50/IC50) ([13]; HIV-1 BR/93/022 in PBMCs): >49.8; TI (TC50/IC50) ([13]; HIV-1 CMU 02 in PBMCs): >44.1; TI (TC50/IC50) ([13]; HIV-1 JV 1083 in PBMCs): >71.4; TI (TC50/IC50) ([13]; HIV-1 RW/92/016 in PBMCs): >74.6; TI (TC50/IC50) ([13]; HIV-1 UG/92/046 in PBMCs): >36.1

Reference: patent publication US20090018162A1, “USE OF 6-(3-CHLORO-2-FLUOROBENZYL)-1-[(2S)-1-HYDROXY-3-METHYLBUTAN-2-YL]-7-METHOXY-4-OXO-1,4-DIHYDROQUINOLINE-3-CARBOXYLIC ACID OR SALT THEREOF FOR TREATING RETROVIRUS INFECTION” (priority 2006, published 2009)
